{"source": "ChEMBL document CHEMBL1201862", "about": "“PubChem BioAssay data set” (2004)", "target": "Envelope glycoprotein gp160 (Human immunodeficiency virus 1, UniProt Q6QLK5)", "sequence (Q6QLK5 whole entry, the tested form may be a part)": "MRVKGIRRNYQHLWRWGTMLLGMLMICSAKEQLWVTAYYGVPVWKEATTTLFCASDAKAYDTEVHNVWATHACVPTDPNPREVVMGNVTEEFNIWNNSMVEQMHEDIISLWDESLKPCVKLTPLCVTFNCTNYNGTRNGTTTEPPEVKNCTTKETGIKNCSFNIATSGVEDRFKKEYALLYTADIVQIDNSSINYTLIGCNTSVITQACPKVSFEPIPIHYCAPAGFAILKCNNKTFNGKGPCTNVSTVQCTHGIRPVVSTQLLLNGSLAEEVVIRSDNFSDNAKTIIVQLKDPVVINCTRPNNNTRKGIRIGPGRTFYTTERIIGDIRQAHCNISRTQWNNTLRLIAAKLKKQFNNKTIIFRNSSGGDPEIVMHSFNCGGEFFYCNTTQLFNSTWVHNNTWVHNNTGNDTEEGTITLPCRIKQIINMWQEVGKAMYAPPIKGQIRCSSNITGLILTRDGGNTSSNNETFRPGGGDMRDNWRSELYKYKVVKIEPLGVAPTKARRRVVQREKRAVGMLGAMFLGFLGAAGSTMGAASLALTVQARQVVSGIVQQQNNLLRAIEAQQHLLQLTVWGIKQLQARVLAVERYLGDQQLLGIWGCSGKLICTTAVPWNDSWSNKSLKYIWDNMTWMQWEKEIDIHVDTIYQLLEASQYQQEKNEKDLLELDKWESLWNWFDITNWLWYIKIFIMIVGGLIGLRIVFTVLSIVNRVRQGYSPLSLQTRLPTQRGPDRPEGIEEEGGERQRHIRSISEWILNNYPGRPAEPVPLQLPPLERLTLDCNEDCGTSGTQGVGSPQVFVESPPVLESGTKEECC", "assay": "inhibitors of HIV fusion peptide binding, primary screen, biochemical, uHTS, fluorescence dequenching (AID 1986)", "note": "Activity calls are given as the source filed them. Cut-off read from the data, not from the text of the source: actives have a measured IC50 and inactives only a lower limit."}
{"compound": "O=C(O)CN1C(=O)/C(=C\\c2cc(Br)ccc2OCc2ccccc2F)SC1=S", "values": [{"measurement": "IC50", "result": "10.9 µM (active)"}]}
{"compound": "O=C(N/N=C/c1cc(Cl)cc([N+](=O)[O-])c1O)NC12CC3CC(CC(C3)C1)C2", "values": [{"measurement": "IC50", "result": "23.2 µM (active)"}]}
